The results in this text go back to ChEMBL document CHEMBL1201862, “PubChem BioAssay data set” (2004).

What all share (experiment): growth of human tumour cells (NCI), 48 h
Assay [1] deals with ACHN.
Assay [2] relates to BT-549.
For assay [3], the system named is COLO 205.
The subject of assay [4] is DU-145.
Assay [5] deals with HCT-116.
In assay [6] the test system is HCT-15.
In assay [7] the test system is Hs-578T.
Assay [8] relates to K562.
Assay [9] relates to MDA-MB-231.
Assay [10] relates to MDA-MB-435.
The subject of assay [11] is Malme-3M.
Assay [12] has as its system NCI-H226.
The test system of assay [13] is NCI-H23.
Assay [14] deals with NCI-H522.
For assay [15], the system named is PC-3.
Assay [16] has as its system SNB-19.
Assay [17] concerns SR.
In assay [18] the test system is T47D.
Assay [19] has as its system U-251.
In assay [20] the test system is UACC-257.

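Five compound concentrations were applied to cells in 96-well plates for 48 hours; endpoints were derived by simple linear interpolation of the resulting dose-response curve. GI50 is the concentration that inhibits growth by half.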 Active and inactive are the calls of the source. Cut-off read from the data, not from the text of the source: active = GI50 up to about 1.1 µM and inactive = higher.

Regarding `CCOC(=O)c1ccc(-c2cccs2)n1C`, the GI50 was > 100 µM (inactive) in assay [1]; > 83 µM (inactive) in assay [2]; > 100 µM (inactive) in assay [3]; > 100 µM (inactive) in assay [4]; > 95.1 µM (inactive) in assay [5]; 51.5 µM in assay [6]. In addition, the GI50 was 43.4 µM (inactive) in assay [7]; 60.5 µM (inactive) in assay [8]; > 100 µM (inactive) in assay [9]; > 92.5 µM (inactive) in assay [10]; > 67.1 µM (inactive) in assay [11]; > 100 µM (inactive) in [12]. Further, the GI50 in assay [13] was > 86.7 µM (inactive); in assay [14] it was 51.6 µM (inactive); in [15], > 100 µM (inactive); in assay [16], > 100 µM (inactive); in assay [17], > 64.9 µM (inactive); in assay [18] it was 19 µM (inactive). For the same molecule, the results for the GI50 in assay [19] and in assay [20] were > 100 µM (inactive) and > 79.1 µM (inactive), respectively.
As to `CCOC(=O)N(Cc1cccs1)c1cc(OC)c(OC)c(OC)c1`, the GI50 was > 100 µM (inactive) in assay [1]; 40.6 µM (inactive) in [2]; 7.18 µM (inactive) in assay [3]; > 100 µM (inactive) in [4]; > 100 µM (inactive) in assay [5]; 62.4 µM in assay [6]. Also, the GI50 in assay [7] was 86.5 µM (inactive); in assay [8] it was 26.2 µM (inactive); in assay [9], 75 µM (inactive); in [10], 17.4 µM (inactive); in assay [11], > 100 µM (inactive); in assay [12], 86.3 µM (inactive). Moreover, the GI50 was > 100 µM (inactive) in assay [13]; 32.6 µM (inactive) in [14]; 33.1 µM (inactive) in assay [15]; > 100 µM (inactive) in assay [16]; 21.3 µM (inactive) in assay [17]; 54.1 µM (inactive) in assay [18]. The GI50 in assay [19] and in [20] was > 100 µM (inactive) throughout.
Regarding `C=C1C(=O)O[C@H]2C1C[C@@H](O)/C(C)=C/CC[C@@]1(C)O[C@H]21` (stereo partly drawn), the GI50 was 9.27 µM (inactive) in assay [1]; 8.04 µM (inactive) in assay [2]; 4.93 µM (inactive) in assay [3]; 20.7 µM (inactive) in [4]; 8.93 µM (inactive) in assay [5]; 12.1 µM in assay [6]. The GI50 in assay [7] is 31.3 µM (inactive); in [8], 6.37 µM (inactive); in [9], 18.6 µM (inactive); in assay [10], 8.2 µM (inactive); in assay [11], 4.08 µM (inactive); in [12] it was > 54.3 µM (inactive). In addition, the GI50 in assay [13] is 13.6 µM (inactive); in assay [14], 2.97 µM (inactive); in assay [15] it was 23 µM (inactive); in assay [16], 52 µM (inactive); in [17], 7.64 µM (inactive); in [18], 9.12 µM (inactive). The GI50 in [19] is 24.4 µM (inactive); in [20], 13.1 µM (inactive).
For the molecule `O=C(Nc1ccc(-c2cn3ccccc3n2)cc1)c1cc(Br)ccc1O`, the GI50 in assay [1] is > 100 µM (inactive); in assay [2], > 100 µM (inactive); in [3], > 100 µM (inactive); in assay [4], > 100 µM (inactive); in assay [5], > 100 µM (inactive); in assay [6] it was > 100 µM. Moreover, the GI50 in assay [7], in assay [8], in assay [9], in [10], in assay [11] and in assay [12] was > 100 µM (inactive) throughout. For the same molecule, the GI50 in assay [13], in assay [14], in assay [15], in assay [16], in assay [17] and in assay [18] was > 100 µM (inactive) throughout. The GI50 in assay [19] and in [20] was > 100 µM (inactive) throughout.
Turning to `CC(=O)/C=C1\Nc2ccc([N+](=O)[O-])cc2N\C1=C/C(C)=O`, the GI50 in assay [1] is 42.5 µM (inactive); in assay [2], 31.9 µM (inactive); in assay [3] it was 58.2 µM (inactive); in assay [4], 80.5 µM (inactive); in assay [5], 28.8 µM (inactive); in [6], 33.4 µM. The GI50 in assay [7] was 26.7 µM (inactive); in assay [8], 50.8 µM (inactive); in [9], 92.5 µM (inactive); in assay [10], 82.4 µM (inactive); in assay [11] it was 25.7 µM (inactive); in assay [12], 39.4 µM (inactive). Moreover, the GI50 in [13] was 25.1 µM (inactive); in assay [14], 16 µM (inactive); in assay [15] it was 44.3 µM (inactive); in [16], 42.2 µM (inactive); in [17], 17.9 µM (inactive); in assay [18], 33.8 µM (inactive). Also, the GI50 is 35.3 µM (inactive) in assay [19] and 21.9 µM (inactive) in assay [20].
As for `O=C1c2cc3ccccc3cc2C2(c3ccc(Cl)cc3)N[C@H]3CCCC[C@@H]3N12` (stereo partly drawn), the GI50 is 15.2 µM (inactive) in assay [1]; 20 µM (inactive) in assay [2]; 15.3 µM (inactive) in assay [3]; 17.9 µM (inactive) in assay [4]; 5.68 µM (inactive) in assay [5]; 21.6 µM in [6]. The GI50 in [7] is 11.7 µM (inactive); in assay [8], 26.9 µM (inactive); in [9], 13.3 µM (inactive); in assay [10] it was 21.9 µM (inactive); in [11] it was 15.1 µM (inactive); in assay [13], 14.6 µM (inactive). For the same molecule, the GI50 is 14.9 µM (inactive) in assay [15]; 13.7 µM (inactive) in [16]; 14.7 µM (inactive) in assay [17]; 7.4 µM (inactive) in assay [18]; 14.2 µM (inactive) in assay [19]; 19.4 µM (inactive) in assay [20].
For `Cc1ccc(/C=C2\Sc3scc(-c4ccccc4)[n+]3C2=O)cc1`, the GI50 is 20.7 µM (inactive) in assay [1]; 17.4 µM (inactive) in assay [2]; 20.7 µM (inactive) in assay [3]; 24.7 µM (inactive) in assay [4]; 21.2 µM (inactive) in [5]; 19.8 µM in assay [6]. For the same molecule, the GI50 is 3.38 µM (inactive) in assay [7]; 12.3 µM (inactive) in [8]; 17.5 µM (inactive) in assay [9]; 9.27 µM (inactive) in assay [10]; 37.3 µM (inactive) in assay [12]; 17.5 µM (inactive) in assay [13]. Further, the GI50 in assay [14] is 3.4 µM (inactive); in [15], 29 µM (inactive); in assay [16], 24.5 µM (inactive); in assay [17], 5 µM (inactive); in assay [18] it was 48.3 µM (inactive); in assay [19], 16.2 µM (inactive). Moreover, the GI50 in assay [20] is 22.8 µM (inactive).
Turning to `N=C(c1cccs1)C1(N2CCCCC2)CCCCC1`, the GI50 was 16.9 µM (inactive) in [1]; 24.5 µM (inactive) in [2]; 15.8 µM (inactive) in [4]; 42.2 µM (inactive) in [5]; 14.8 µM in assay [6]; 57.4 µM (inactive) in assay [7]. Further, the GI50 was 16.4 µM (inactive) in [8]; 16.6 µM (inactive) in assay [9]; 18.2 µM (inactive) in [10]; 14.6 µM (inactive) in assay [11]; 24.3 µM (inactive) in assay [13]; 14.8 µM (inactive) in assay [14]. Further, the GI50 is 18.7 µM (inactive) in assay [15]; 17.5 µM (inactive) in [16]; 16.9 µM (inactive) in assay [17]; 11.6 µM (inactive) in assay [18]; 16.4 µM (inactive) in assay [19]; 15.6 µM (inactive) in assay [20].
Regarding `CC(=O)Oc1ccccc1-c1cc2ccccc2oc1=O`, the GI50 was > 100 µM (inactive) in assay [1]; > 100 µM (inactive) in assay [2]; > 100 µM (inactive) in assay [3]; > 100 µM (inactive) in assay [4]; > 100 µM (inactive) in [5]; > 100 µM in assay [6]. Also, the GI50 in assay [7] was > 100 µM (inactive); in assay [8] it was > 100 µM (inactive); in assay [9], > 100 µM (inactive); in [10] it was > 100 µM (inactive); in assay [11] it was > 100 µM (inactive); in [12], 31 µM (inactive). Further, the GI50 in assay [13] was 83.8 µM (inactive); in assay [14], 61.1 µM (inactive); in assay [15] it was > 100 µM (inactive); in [16] it was > 100 µM (inactive); in [17], > 100 µM (inactive); in assay [18] it was 97.7 µM (inactive). Moreover, the GI50 in [20] was > 100 µM (inactive).
`CCCC[P+](CCCC)(CCCC)C(C(=O)OC)C(C(=O)OC)=C1SC(C(=O)OC)=C(C(=O)OC)S1` (stereo not drawn): the GI50 in assay [1] was > 100 µM (inactive); in assay [2], > 100 µM (inactive); in [3], > 100 µM (inactive); in assay [4], > 100 µM (inactive); in [5] it was > 100 µM (inactive); in [6], > 100 µM. Also, the GI50 in assay [7], in assay [9], in assay [10], in assay [11], in assay [12] and in [13] was > 100 µM (inactive) in each case. For the same molecule, the GI50 in [14], in assay [15], in assay [16], in assay [17], in assay [18] and in assay [19] was > 100 µM (inactive) each time. In addition, in assay [20], the GI50 is > 100 µM (inactive).
